Measured values taken from patent US20040142899A1, “Compositions and methods for enhanced biostability and altered biodistribution of oligonucleotides in mammals” (ISIS Pharmaceuticals, Inc., priority 1990, published 2004).
Where “and” joins values, the source holds several entries; their conditions need not be identical. Identical values can stand only once.

How the values were obtained:
[1] = test system: E2 gene of bovine papilloma virus type 1 (BPV-1); experiment: E2 transactivation assay (pE2RE-1-CAT) in I-38 cells; format: cell-based, bovine papilloma virus-1; details: I-38 cells transfected with pE2RE-1-CAT, harvested after 48 hours; lower = more inhibition; listed as positive control compound
MDR1 mRNA [2] = experiment: MDR1 mRNA expression by Northern blotting in MDR 3T3 cells; format: cell-based, human; details: for MDR1 mRNA Level (arbitrary units) / % Control (MDR1 mRNA): oligonucleotide 1 μm, with Lipofectin; for MDR1 mRNA Level (arbitrary units): serum free medium; for % Control (MDR1 mRNA): control = untreated cells
Description: NIH 3T3 cells transfected with a plasmid containing the human MDR1 gene (pSK1 MDR) have been previously described (Kane et al., Gene, 1989, 84, 439). These cells have proven to be useful models for the study of multi-drug resistance phenomena. Cells were grown in DMEM media containing 10% fetal bovine serum (FBS) and 60 ng/ml colchicine in an atmosphere of 95% air, 5% CO2.
Cells were grown in […] flasks.
To measure MDR1 mRNA expression by Northern blotting, total cellular RNA was isolated by lysis in 4M guanidium isothiocyanate followed by a cesium chloride gradient, and the RNA was resolved on 1.2% agarose gels containing 1.2% formaldehyde and transferred to nitrocellulose membranes (Dean et al., J. Biol. Chem., 1994, 269, 16416). The blots were hybridized with a ^32P radiolabeled human MDR1 cDNA probe. The MDR1 cDNA probe was isolated by performing a polymerase chain reaction on the pSK1 MDR plasmid, as described previously (Alahari et al., Nucl. Acids Res., 1993, 21, 4079). The following oligonucleotide primers were used for PCR: […]
The resulting fragment was checked on an agarose gel and was radiolabeled with ^32P-dCTP using a commercially available random primer labeling kit (Amersham, Arlington Heights, Ill.) according to the manufacturer's instructions. The filters were hybridized overnight in hybridization buffer (25 mM KPO4, pH 7.4; 5×SSC; 5×Denhardt's solution, 100 ug/ml Salmon sperm DNA and 50% formamide) (Alahari et al., Nucl. Acids Res., 1993, 21, 4079). This was followed by two washes with 1×SSC, 0.1% SDS and two washes with 0.25×SSC, 0.1% SDS. Hybridizing bands were visualized by exposure to X-OMAT AR film and quantitated using a PhosphorImager™ (Molecular Dynamics, Sunnyvale, Calif.). To confirm equal loading of RNA, the blots were stripped and reprobed with a ^32P-labeled beta-actin probe (Clontech, Palo Alto, Calif).
In initial experiments, the MDR 3T3 cells were exposed to 1.0 μm concentrations of several different antisense oligonucleotides, or control oligonucleotides, in the presence of 20 ug/ml LIPOFECTIN® for 24 hours. […] NIH 3T3 cells transfected with pSK1 MDR plasmid were grown to 90% confluence and treated with oligonucleotide (1 μm) for 24 hours in the presence of Lipofectin® in serum free medium. Total RNA was isolated and fractionated on agarose formaldehyde gels and blotted onto nitrocellulose membranes. These membranes were probed with a ^32P radiolabeled 1.0 kb MDR1 cDNA, and then stripped and reprobed with a ^32P radiolabeled beta-actin cDNA probe to confirm equal loading of RNA, allowing the levels of MDR1 transcripts to be normalized with regard to the beta-actin bands. Transcript levels were quantitated using a PHOSPHORIMAGER™ (Molecular Dynamics, Sunnyvale, Calif.); the values are expressed in arbitrary units (the beta-actin transcripts were essentially constant).

P-glycoprotein [3] = experiment: P-glycoprotein expression by Western blotting in MDR 3T3 cells; format: cell-based, human; details: maximum only after 72 hours exposure
Description: Transfected MDR NIH 3T3 cells were grown and treated with oligonucleotides as described in Example (9)(B). In order to measure P-glycoprotein expression by Western blotting, cells were seeded in 60 mm dishes at 1.2×10^6 per dish and incubated for 24 hours in serum containing medium. The cells were treated with the oligomers for various times in serum free medium as described above. Cells were then extracted in lysis buffer (20 mM Tris, pH 7.5, 2 mM EDTA, 500 mM EGTA, 2 mM PMSF, 1 mM DTT, aprotonin (10 ug/ml), 0.5% Triton-X) and sonicated briefly. The lysate was spun in a microfuge tube for 20 minutes at 4° C. and the resulting supernatant was checked for protein content. Equal amounts of protein (usually 20 ug) were mixed with SDS sample buffer and boiled. Protein samples were separated by 8% SDS PAGE and the resolved proteins were electrophoretically transferred onto polyvinyllidene fluoride membranes (Millipore, Bedford, Mass.). The membranes were blocked (with 3% BSA, 2% non fat dry milk in PBS) and then treated with 2 ug/ml C219 anti-P-glycoprotein antibody (Signet, Dedham, Mass.). After washing three times with 0.1% Tween 20, the membranes were incubated with rabbit anti-mouse antibody (Cappel, Durham, N.C.). Immunoreactive proteins were visualized either by ECL (Enhanced Chemiluminescence, Amersham, Arlington Heights, Ill.) or with ^125I secondary antibodies.

P-glycoprotein [4] = experiment: Cell surface P-glycoprotein by immunofluorescent staining and flow cytometry in MDR 3T3 cells; format: cell-based, human; details: 1 μm administered with LIPOFECTIN, parallel experiment
Description: MDR 3T3 cells were treated with various concentrations of oligonucleotides ISIS 11073 (5′-cholesterol 5995), or ISIS 12064 (5′-cholesterol 10221; scrambled control) for 48 hours in serum free medium. The cells were recovered and stained with an anti-P-glycoprotein monoclonal antibody directed against a surface epitope, followed by a phycoerythrin-conjugated second antibody. The level of cell surface fluorescence in viable cells was quantitated using a flow cytometer; light scatter parameters were set so as to exclude non-viable cells. […] The results represent means and standard errors for 6 determinations.
Transfected MDR NIH 3T3 cells were grown and treated with oligonucleotides as described in Example (9)(B). MDR1 mRNA expression was measured by Northern blotting as described in Example (9)(C). In order to measure cell surface P-glycoprotein levels by flow cytometry, cells were seeded in 60 mm dishes at 1.2×10^6/plate in 5 ml of medium, grown for one day in 10% FBS/DMEM, and exposed to the oligomers in serum free medium. […] The level of R-PE fluorescence in viable cells (as determined by light scatter) was quantitated using the Cicero software application (Cytomation, Fort Collins, Co.) on a Becton Dickinson flow cytometer.

[5] = test system: multi-drug resistant 3T3 cells
MDR1 mRNA [6] = experiment: MDR1 mRNA expression by Northern blotting in MDR 3T3 cells; format: cell-based, human
mouse ICAM-1 mRNA = experiment: ICAM-1 mRNA levels in LPS-treated mice (Northern analysis); format: in vivo
Description: (§1) Mice were treated with oligonucleotides and examined as follows. […] Then, to induce ICAM-1 expression, bacterial lipopolysaccharide (LPS) was injected into the mice. After 2 hours, the mice were sacrificed, and particular organs, or specific portion thereof, were removed for further study. RNA was prepared from isolated, homogenized tissues essentially according to the guanidinium/CsCl purification method of Chirgwin et al. (Biochemistry, […], 18, 5294), electrophoresed and transferred to nylon membranes for hybridization studies (Northern analysis) according to methods well known in the art. In order to detect mouse ICAM-1 mRNA, a radiolabelled probe was prepared by random oligonucleotide-primed synthesis using a mouse ICAM-1 clone as a template. The blots were stripped and reprobed with a ^32P-labeled glyceraldehyde 3-phosphate dehydrogenase (G3PDH) probe (Clontech Laboratories, Inc., Palo Alto, Calif.) in order to confirm equal loading of RNA and to allow the levels of ICAM-1 transcripts to be normalized with regard to the G3PDH signals. Hybridizing bands were visualized by exposure to X-OMAT AR film and quantitated using a PHOSPHORIMAGER™ essentially according to the manufacturer's instructions (Molecular Dynamics, Sunnyvale, Calif.).

c-raf mRNA = c-raf mRNA levels in murine liver (gene target specificity); format: in vivo, mouse; details: 10 mg/kg
Description: as §1
(§2) In similar experiments, the sequence (gene target) specificity of the 5′-cholesterol antisense oligonucleotide ISIS 8005 was examined.

PECAM-1 mRNA = PECAM-1 mRNA levels in murine liver (gene target specificity); format: in vivo, mouse; details: 10 mg/kg
Description: as §1, §2

[7] = test system: DNA complementary strand, Oligomer 40; experiment: Melting analysis (Tm) of 2′-O-pentylamino linker strand against DNA complementary strand; format: binding
Description: (§3) The test oligonucleotides (either the phosphodiester, phosphorothioate, cholic acid conjugated phosphodiester, cholic acid conjugated phosphorothioate or 5′-aminolink intermediate phosphodiester or phosphorothioate oligonucleotides of the invention or otherwise) and either the complementary DNA or RNA oligonucleotides were incubated at a standard concentration of 4 μM for each oligonucleotide in buffer (100 mM NaCl, 10 mM Na-phosphate, pH 7.0, 0.1 mM EDTA). Samples were heated to 90 degrees C. and the initial absorbance taken using a Guilford Response II spectro-photometer (Corning, Inc., Corning, N.Y.). Samples were then slowly cooled to 15° C. and then the change in absorbance at 260 nm was monitored during the heat denaturation procedure. The temperature was elevated 1 degree/absorbance reading and the denaturation profile analyzed by taking the 1st derivative of the melting curve. Data was also analyzed using a two-state linear regression analysis to determine the Tm's. The results of these tests are shown in Table 3 as are the HPLC retention times of certain of the test compounds.
(§4) Melting analysis was conducted as per the method of Procedure B(1)(b).

[8] = test system: RNA complementary strand, Oligomer 41; experiment: Melting analysis (Tm) of 2′-O-pentylamino linker strand against RNA complementary strand; format: binding
Description: as §3, §4

[9] = Oligomer 38 versus unmodified Oligomer 39

## 5′-CTG-TCT-CCA-TCC-TCT-TCA-CT (CTGTCTCCATCCTCTTCACT; all phosphorothioate, sugars by position and methylation of C not given here) [Oligomer 42]
[1]
  percent acetylation (chloramphenicol acetyl transferase): 29% and 30%

## CAC-CAC-CCC-CCT-CGC-TGG-TC (CACCACCCCCCTCGCTGGTC; chemistry not given here) [ISIS 10221, reference compound]
MDR1 mRNA [2]; 24 hours
  MDR1 mRNA Level (arbitrary units): 456,522 arbitrary units
  % Control (MDR1 mRNA): 96%
P-glycoprotein [3]
  reduction of P-glycoprotein (Western assays): did not reduce P-glycoprotein expression
P-glycoprotein [4]
  effect on P-glycoprotein surface expression: less effective than an equivalent concentration of the cholesterol-conjugated analogs
[5]
  non-specific effects at higher concentrations: reduced beta-actin message levels and increased cytotoxicity
MDR1 mRNA [6]; repeated experiments, laser densitometry of autoradiograms
  MDR1/beta-actin ratio: 1.01

## U*GC-ATC-CCC-CAG-GCC-ACC-AT [ISIS 8005]
Mouse ICAM-1 mRNA; liver, 30 mg/kg i.v. 24 and 2 hours prior to LPS
  reduction of hepatic ICAM-1 mRNA relative to LPS without oligonucleotide: about 50%
Mouse ICAM-1 mRNA; lung samples, 30 mg/kg
  reversal of LPS-mediated induction of ICAM-1 mRNA in the lung: neither ISIS 3082 nor its 5′-cholesterol conjugate ISIS 8005 was able to reverse the LPS-mediated induction of ICAM-1 to any great degree
c-raf mRNA
  effect on c-raf mRNA levels: no effect
PECAM-1 mRNA
  effect on PECAM-1 mRNA levels: no effect
ICAM-1 protein; LPS-induced livers, HRP-conjugated secondary antibodies
  ICAM-1 staining of liver sections: virtually indistinguishable
ICAM-1 protein; mouse, in vivo
  overall cellular structure of liver: no gross cellular defects

## CCA-TCC-CGA-CCT-CGC-GCT-CC (CCATCCCGACCTCGCGCTCC; chemistry not given here) [ISIS 5995]
MDR1 mRNA [2]; 1.0 μm, 20 ug/ml LIPOFECTIN, 24 hours
  reduction in MDR1 message levels: about 50%
MDR1 mRNA [2]; after 24 hours exposure
  time to normal levels of MDR1 mRNA after return to medium without oligonucleotide: ≤ 24 h
MDR1 mRNA [2]; approximately 1.0 μm, 24 hours, LIPOFECTIN (FIG. 1)
  reduction in MDR1 message at maximal specific effect: approximately 60%
MDR1 mRNA [2]; 24 hours
  MDR1 mRNA Level (arbitrary units): 226,087 arbitrary units
  % Control (MDR1 mRNA): 48%
P-glycoprotein [3]
  reduction of P-glycoprotein (Western assays): at least 80%
P-glycoprotein [4]
  effect on P-glycoprotein surface expression: less effective than an equivalent concentration of the cholesterol-conjugated analogs
MDR1 mRNA [6]; 1 μm, 24, 48 and 72 hours tested
  treatment time of maximum specific reduction of MDR1 mRNA: 24 h
MDR1 mRNA [6]; dose response 50-1000 nM, 24 hours, LIPOFECTIN
  lowest concentration with some reduction in message levels: 100 nM

## GGA*-CCG-GA*A*-GGT-A*CG-A*G (GGACCGGAAGGTACGAG; chemistry not fully specified) [Oligomer 38, A* = pentylamino functionality at 2′-position]
[7]; [9]
  change in Tm (Δ38-39) DNA: (6.1) degrees
[7]; against Oligomer 40, 4 μM each strand, 100 mM NaCl, 10 mM Phosphate, 0.1 mM EDTA, pH 7.0
  Tm DNA: 54.5 degrees centigrade
[8]; [9]
  change in Tm (Δ38-39) RNA: (1.1) degrees
[8]; against Oligomer 41, 4 μM each strand, 100 mM NaCl, 10 mM Phosphate, 0.1 mM EDTA, pH 7.0
  Tm RNA: 58.0 degrees centigrade
